Source: patent US20020111274A1, “1-alkyl-3-[1-(substituted phenyl) benzotriazol-6-yl] uracils” (BASF Aktiengesellschaft, priority 2000, published 2002)

Tests used:
Design in all cases: scale not given here
[1] = test system: ABUTH Velvetleaf; assay: Postemergence herbicidal evaluation, ABUTH; type: in vivo, Abutilon theophrasti, Medic.; conditions: postemergence spray, rated about two-three weeks after treatment
In short: (§1)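 Visual injury rating ~2–3 wk post-spray; replicate tests averaged. Two-week-old seedlings; foliar spray at 40 psi; 0.006–0.400 kg ai/ha in 80/20 acetone/water + 1.0% methylated seed oil.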

[2] = test system: AMBEL Ragweed, Common; assay: Postemergence herbicidal evaluation, AMBEL; type: in vivo, Ambrosia artemisifolia, L.; conditions: postemergence spray, rated about two-three weeks after treatment
In short: as §1

[3] = test system: CASOB Sicklepod; assay: Postemergence herbicidal evaluation, CASOB; type: in vivo, Cassia obtusifolia, L.; conditions: postemergence spray, rated about two-three weeks after treatment
In short: as §1

[4] = test system: CHEAL Lambsquarters, Common; assay: Postemergence herbicidal evaluation, CHEAL; type: in vivo, Chenopodium album, L.; conditions: postemergence spray, rated about two-three weeks after treatment
In short: as §1

[5] = test system: ECHOG Barnyardgrass; assay: Postemergence herbicidal evaluation, ECHOG; type: in vivo, Echinochloa crus-galli, (L.) Beau; conditions: postemergence spray, rated about two-three weeks after treatment
In short: as §1

[6] = test system: GALAP Galium; assay: Postemergence herbicidal evaluation, GALAP; type: in vivo, Galium aparine; conditions: postemergence spray, rated about two-three weeks after treatment
In short: as §1

[7] = test system: IPOHE Morningglory, Ivyleaf; assay: Postemergence herbicidal evaluation, IPOHE; type: in vivo, Ipomoea hederacea, (L.) Jacq.; conditions: postemergence spray, rated about two-three weeks after treatment
In short: as §1

[8] = test system: SETVI Foxtail, Green; assay: Postemergence herbicidal evaluation, SETVI; type: in vivo, Setaria viridis, (L.) Beau; conditions: postemergence spray, rated about two-three weeks after treatment
In short: as §1

[9] = test system: GLXMAW Soybean, Williams; assay: Postemergence herbicidal evaluation, GLXMAW; type: in vivo, Glycine max, (L.) Merr. cv Williams; conditions: postemergence spray, rated about two-three weeks after treatment
In short: as §1

[10] = test system: TRZAWR Wheat, Winter, cv Riband; assay: Postemergence herbicidal evaluation, TRZAWR; type: in vivo, Triticum aestivum; conditions: postemergence spray, rated about two-three weeks after treatment
In short: as §1

[11] = test system: ORYSAT Rice, Tebonnet; assay: Postemergence herbicidal evaluation, ORYSAT; type: in vivo, Oryza sativa, (L.); conditions: postemergence spray, rated about two-three weeks after treatment
In short: as §1

[12] = test system: ZEAMX Corn, Field; assay: Postemergence herbicidal evaluation, ZEAMX; type: in vivo, Zea mays, L. (Sammel-Bezeichnung); conditions: postemergence spray, rated about two-three weeks after treatment
In short: as §1

[13] = test system: ABUTH Velvetleaf; assay: Preemergence herbicidal evaluation, ABUTH; type: in vivo, Abutilon theophrasti, Medic.; conditions: preemergence
In short: (§2)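 Seeds mixed with potting soil were planted on about one inch of soil in cups, then sprayed with the test compound in aqueous acetone at roughly 0.013 to 0.800 kg per hectare. Plants were kept under standard greenhouse care and injury was rated four to five weeks after treatment.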

[14] = test system: AMBEL Ragweed, Common; assay: Preemergence herbicidal evaluation, AMBEL; type: in vivo, Ambrosia artemisifolia, L.; conditions: preemergence
In short: as §2

[15] = test system: CASOB Sicklepod; assay: Preemergence herbicidal evaluation, CASOB; type: in vivo, Cassia obtusifolia, L.; conditions: preemergence
In short: as §2

[16] = test system: CHEAL Lambsquarters, Common; assay: Preemergence herbicidal evaluation, CHEAL; type: in vivo, Chenopodium album, L.; conditions: preemergence
In short: as §2

[17] = test system: ECHOG Barnyardgrass; assay: Preemergence herbicidal evaluation, ECHOG; type: in vivo, Echinochloa crus-galli, (L.) Beau; conditions: preemergence
In short: as §2

[18] = test system: GALAP Galium; assay: Preemergence herbicidal evaluation, GALAP; type: in vivo, Galium aparine; conditions: preemergence
In short: as §2

[19] = test system: IPOHE Morningglory, Ivyleaf; assay: Preemergence herbicidal evaluation, IPOHE; type: in vivo, Ipomoea hederacea, (L.) Jacq.; conditions: preemergence
In short: as §2

[20] = test system: SETVI Foxtail, Green; assay: Preemergence herbicidal evaluation, SETVI; type: in vivo, Setaria viridis, (L.) Beau; conditions: preemergence
In short: as §2

[21] = test system: GLXMAW Soybean, Williams; assay: Preemergence herbicidal evaluation, GLXMAW; type: in vivo, Glycine max, (L.) Merr. cv Williams; conditions: preemergence
In short: as §2

[22] = test system: TRZAWR Wheat, Winter, cv Riband; assay: Preemergence herbicidal evaluation, TRZAWR; type: in vivo, Triticum aestivum; conditions: preemergence
In short: as §2

[23] = test system: ORYSAT Rice, Tebonnet; assay: Preemergence herbicidal evaluation, ORYSAT; type: in vivo, Oryza sativa, (L.); conditions: preemergence
In short: as §2

[24] = test system: ZEAMX Corn, Field; assay: Preemergence herbicidal evaluation, ZEAMX; type: in vivo, Zea mays, L. (Sammel-Bezeichnung); conditions: preemergence
In short: as §2

SMILES: COC(=O)COc1ccc(-n2nnc3cc(F)c(-n4c(=O)cc(C(F)(F)F)n(C)c4=O)cc32)c(C)c1 [Example 39]
- Postemergence herbicidal rating ABUTH ([1]; 0.008 kg/ha): 9.0
- Postemergence herbicidal rating ABUTH ([1]; 0.016 kg/ha): 9.0
- Postemergence herbicidal rating ABUTH ([1]; 0.032 kg/ha): 9.0
- Postemergence herbicidal rating ABUTH ([1]; 0.062 kg/ha): 9.0
- Postemergence herbicidal rating AMBEL ([2]; 0.008 kg/ha): 0.0
- Postemergence herbicidal rating AMBEL ([2]; 0.016 kg/ha): 0.0
- Postemergence herbicidal rating AMBEL ([2]; 0.032 kg/ha): 6.0
- Postemergence herbicidal rating AMBEL ([2]; 0.062 kg/ha): 7.0
- Postemergence herbicidal rating CASOB ([3]; 0.008 kg/ha): 0.0
- Postemergence herbicidal rating CASOB ([3]; 0.016 kg/ha): 0.0
- Postemergence herbicidal rating CASOB ([3]; 0.032 kg/ha): 0.0
- Postemergence herbicidal rating CASOB ([3]; 0.062 kg/ha): 2.0
- Postemergence herbicidal rating CHEAL ([4]; 0.008 kg/ha): 0.0
- Postemergence herbicidal rating CHEAL ([4]; 0.016 kg/ha): 2.0
- Postemergence herbicidal rating CHEAL ([4]; 0.032 kg/ha): 2.0
- Postemergence herbicidal rating CHEAL ([4]; 0.062 kg/ha): 7.0
- Postemergence herbicidal rating ECHCG ([5]; 0.008 kg/ha): 0.0
- Postemergence herbicidal rating ECHCG ([5]; 0.016 kg/ha): 0.0
- Postemergence herbicidal rating ECHCG ([5]; 0.032 kg/ha): 0.0
- Postemergence herbicidal rating ECHCG ([5]; 0.062 kg/ha): 3.0
- Postemergence herbicidal rating GALAP ([6]; 0.008 kg/ha): 0.0
- Postemergence herbicidal rating GALAP ([6]; 0.016 kg/ha): 0.0
- Postemergence herbicidal rating GALAP ([6]; 0.032 kg/ha): 3.0
- Postemergence herbicidal rating GALAP ([6]; 0.062 kg/ha): 3.0
- Postemergence herbicidal rating IPOHE ([7]; 0.008 kg/ha): 9.0
- Postemergence herbicidal rating IPOHE ([7]; 0.016 kg/ha): 8.0
- Postemergence herbicidal rating IPOHE ([7]; 0.032 kg/ha): 9.0
- Postemergence herbicidal rating IPOHE ([7]; 0.062 kg/ha): 9.0
- Postemergence herbicidal rating SETVI ([8]; 0.008 kg/ha): 0.0
- Postemergence herbicidal rating SETVI ([8]; 0.016 kg/ha): 0.0
- Postemergence herbicidal rating SETVI ([8]; 0.032 kg/ha): 0.0
- Postemergence herbicidal rating SETVI ([8]; 0.062 kg/ha): 2.0
- Postemergence herbicidal rating GLXMAW ([9]; 0.008 kg/ha): 3.5
- Postemergence herbicidal rating GLXMAW ([9]; 0.016 kg/ha): 3.5
- Postemergence herbicidal rating GLXMAW ([9]; 0.032 kg/ha): 4.0
- Postemergence herbicidal rating GLXMAW ([9]; 0.062 kg/ha): 5.0
- Postemergence herbicidal rating TRZAWR ([10]; 0.008 kg/ha): 2.5
- Postemergence herbicidal rating TRZAWR ([10]; 0.016 kg/ha): 3.0
- Postemergence herbicidal rating TRZAWR ([10]; 0.032 kg/ha): 3.5
- Postemergence herbicidal rating TRZAWR ([10]; 0.062 kg/ha): 5.5
- Postemergence herbicidal rating ORYSAT ([11]; 0.008 kg/ha): 0.0
- Postemergence herbicidal rating ORYSAT ([11]; 0.016 kg/ha): 0.5
- Postemergence herbicidal rating ORYSAT ([11]; 0.032 kg/ha): 1.0
- Postemergence herbicidal rating ORYSAT ([11]; 0.062 kg/ha): 4.0
- Postemergence herbicidal rating ZEAMX ([12]; 0.008 kg/ha): 7.0
- Postemergence herbicidal rating ZEAMX ([12]; 0.016 kg/ha): 7.5
- Postemergence herbicidal rating ZEAMX ([12]; 0.032 kg/ha): 7.5
- Postemergence herbicidal rating ZEAMX ([12]; 0.062 kg/ha): 7.5
- ABUTH herbicidal rating ([13]; rate 0.016 kg/ha): 0.0
- ABUTH herbicidal rating ([13]; rate 0.032 kg/ha): 5.0
- ABUTH herbicidal rating ([13]; rate 0.062 kg/ha): 9.0
- ABUTH herbicidal rating ([13]; rate 0.125 kg/ha): 9.0
- AMBEL herbicidal rating ([14]; rate 0.016 kg/ha): 0.0
- AMBEL herbicidal rating ([14]; rate 0.032 kg/ha): 0.0
- AMBEL herbicidal rating ([14]; rate 0.062 kg/ha): 0.0
- AMBEL herbicidal rating ([14]; rate 0.125 kg/ha): 0.0
- CASOB herbicidal rating ([15]; rate 0.016 kg/ha): 0.0
- CASOB herbicidal rating ([15]; rate 0.032 kg/ha): 0.0
- CASOB herbicidal rating ([15]; rate 0.062 kg/ha): 0.0
- CASOB herbicidal rating ([15]; rate 0.125 kg/ha): 0.0
- CHEAL herbicidal rating ([16]; rate 0.016 kg/ha): 3.0
- CHEAL herbicidal rating ([16]; rate 0.032 kg/ha): 3.0
- CHEAL herbicidal rating ([16]; rate 0.062 kg/ha): 9.0
- CHEAL herbicidal rating ([16]; rate 0.125 kg/ha): 9.0
- ECHCG herbicidal rating ([17]; rate 0.016 kg/ha): 0.0
- ECHCG herbicidal rating ([17]; rate 0.032 kg/ha): 0.0
- ECHCG herbicidal rating ([17]; rate 0.062 kg/ha): 0.0
- ECHCG herbicidal rating ([17]; rate 0.125 kg/ha): 0.0
- GALAP herbicidal rating ([18]; rate 0.016 kg/ha): 0.0
- GALAP herbicidal rating ([18]; rate 0.032 kg/ha): 0.0
- GALAP herbicidal rating ([18]; rate 0.062 kg/ha): 0.0
- GALAP herbicidal rating ([18]; rate 0.125 kg/ha): 7.0
- IPOHE herbicidal rating ([19]; rate 0.016 kg/ha): 0.0
- IPOHE herbicidal rating ([19]; rate 0.032 kg/ha): 0.0
- IPOHE herbicidal rating ([19]; rate 0.062 kg/ha): 0.0
- IPOHE herbicidal rating ([19]; rate 0.125 kg/ha): 3.0
- SETVI herbicidal rating ([20]; rate 0.016 kg/ha): 0.0
- SETVI herbicidal rating ([20]; rate 0.032 kg/ha): 0.0
- SETVI herbicidal rating ([20]; rate 0.062 kg/ha): 0.0
- SETVI herbicidal rating ([20]; rate 0.125 kg/ha): 4.0
- GLXMAW herbicidal rating ([21]; rate 0.016 kg/ha): 0.0
- GLXMAW herbicidal rating ([21]; rate 0.032 kg/ha): 0.0
- GLXMAW herbicidal rating ([21]; rate 0.062 kg/ha): 0.0
- GLXMAW herbicidal rating ([21]; rate 0.125 kg/ha): 0.0
- TRZAWR herbicidal rating ([22]; rate 0.016 kg/ha): 0.0
- TRZAWR herbicidal rating ([22]; rate 0.032 kg/ha): 0.0
- TRZAWR herbicidal rating ([22]; rate 0.062 kg/ha): 0.0
- TRZAWR herbicidal rating ([22]; rate 0.125 kg/ha): 0.0
- ORYSAT herbicidal rating ([23]; rate 0.016 kg/ha): 0.0
- ORYSAT herbicidal rating ([23]; rate 0.032 kg/ha): 0.0
- ORYSAT herbicidal rating ([23]; rate 0.062 kg/ha): 0.0
- ORYSAT herbicidal rating ([23]; rate 0.125 kg/ha): 3.0
- ZEAMX herbicidal rating ([24]; rate 0.016 kg/ha): 0.0
- ZEAMX herbicidal rating ([24]; rate 0.032 kg/ha): 0.0
- ZEAMX herbicidal rating ([24]; rate 0.062 kg/ha): 0.0
- ZEAMX herbicidal rating ([24]; rate 0.125 kg/ha): 0.0
